Patent publication US12605366B2, “Telmisartan for the treatment of hypertension in dogs” (BOEHRINGER INGELHEIM VETMEDICA GMBH, priority 2019, dated 2026)

Tests used:
[1] = test system: dogs with hypertension; assay: Prospective, block-randomized, double-blind clinical trial: systolic blood pressure (SBP) in client-owned dogs with proteinuric CKD; format: in vivo, dog; settings: for Average of SBP day 0: baseline; for Average of SBP day 0 / Average of SBP % change day 30 / Average of SBP change day 30 / Average of SBP % change day 60 / Average of SBP change day 60 / Average of SBP % change day 90 / Average of SBP change day 90 / Average of SBP day 30 / Average of SBP day 60 / Average of SBP day 90: dogs hypertensive at day 0, no amlodipine; for Average of SBP % change day 30 / Average of SBP change day 30 / Average of SBP % change day 60 / Average of SBP change day 60 / Average of SBP % change day 90 / Average of SBP change day 90 / Average of SBP % change day 120 / Average of SBP change day 120: change from baseline; for Average of SBP % change day 120 / Average of SBP change day 120: the other drug (telmisartan or enalapril) added after SBP measurement on day 90; for course of average SBP during the period of treatment: up to day 90
Description: A prospective, block-randomized, double-blind clinical trial has been carried out. Fifty-four client-owned dogs with persistent pathologic renal proteinuria have been recruited over a 2-year period.
Azotemic and non-azotemic dogs (N=54) with hypertensive and non-hypertensive CKD have been recruited prospectively from patients presented to the hospital. Dogs included as cases will have confirmed persistent pathologic renal proteinuria due to CKD; in order to be classified as such, fulfillment of the criteria described below will be required.
Abdominal ultrasound findings consistent with CKD (bilaterally small, irregular kidneys) and absence of renal neoplasia have also been documented.
Dogs with suspected or confirmed hyper-adrenocorticism and diabetes mellitus have been included if their disease is considered well controlled with medical therapy.
Once included in the study and based on the presence/degree of azotemia, dogs have been grouped according to the International Renal Interest Society (IRIS) classification scheme for CKD. Those classified as IRIS stages 2-4 (serum creatinine ≥1.4 mg/dL with inappropriately dilute urine [USG<1.030]) have been considered azotemic (AZ), and those classified as IRIS stage 1 (creatinine <1.4 mg/dL) have been considered non-azotemic (non-AZ). Within each of these two groups, dogs will then be stratified according to IRIS recommendations for arterial pressure (AP) substaging. According to this scheme, dogs with persistent average indirect arterial systolic BP<150 mm Hg will be classified as AP0 (minimal risk for target organ damage). Those with persistent average indirect arterial systolic BP≥150 mm Hg have been classified as AP1-3 (at risk for target organ damage). Four groups will thus be identified: • 1. AZ (IRIS Stages 2-4), IRIS substage AP1-3 3. non-AZ (IRIS Stage 1), IRIS substage AP1-3 • 2. AZ (IRIS Stages 2-4), IRIS substage AP0 4. non-AZ (IRIS Stage 1), IRIS substage AP0
Once placed into one of these four groups, each patient has then been assigned, based on a randomized blocking scheme, to receive either enalapril (n=27) or telmisartan (n=27), as described below, with the aim of grouping being to ensure that equal numbers of each are included into the two treatment groups.
On inclusion (day 0), all owners have been required to read/sign a form consenting to their pets' participation in the study. The following baseline data have been collected for each case: full physical examination (performed by one of the study investigators), fundic examination, blood pressure measurement, serum chemistry panel, urinalysis, abdominal ultrasound, UPC and urine culture. The results of screening tests, if performed within 2 weeks of inclusion in the study, may be used as baseline information. Baseline UPC has been defined as the average of two measurements, taken 2 weeks apart, prior to enrollment.
On day 0, each dog has been randomized to receive telmisartan at 1 mg/kg PO q 24 h (TEL group, n=27) or enalapril at 0.5 mg/kg PO q 12 h (ENAL group, n=27) in a double-blind manner. Randomization and dispensation of telmisartan or enalapril has been carried out at the appropriate doses. Owners have been provided with appropriate contact numbers in the event of an emergency. Enalapril is readily available and telmisartan has been provided by Boehringer Ingelheim Vetmedica Inc., St. Joseph, MO in form of the an aqueous solution, which is commercially available as Semintra®.
For dogs that are classified as AP3 (SBP≥180 mmHg; ≥200 mmHg in sighthounds), a calcium channel blocker (CCB; amlodipine, 0.1 mg/kg PO q 24 hours) has been administered contemporaneously. Co-administration of RAAS-inhibitors and CCB is common in human patients, recommended by a panel of veterinary experts and shown to be efficacious in a laboratory model of proteinuria. All dogs have been started or maintained on a commercially available diet formulated to be low in phosphorus and protein, for at least 1 month prior to enrollment. […]

[2] = test system: dogs; settings: cited from earlier work

CCOC(=O)[C@H](CCc1ccccc1)N[C@@H](C)C(=O)N1CCC[C@H]1C(=O)O [Enalapril]
Average of SBP day 0 [1]: 163.17 mmHg
Average of SBP day 0 ([1]; listed as enalapril): 163 mmHg
Average of SBP % change day 30 ([1]; day 30): +12.90%
Average of SBP change day 30 ([1]; day 30): +20.00 mmHg
Average of SBP % change day 60 [1]: +0.65%
Average of SBP change day 60 [1]: +1.00 mmHg
Average of SBP % change day 90 [1]: +1.94%
Average of SBP change day 90 [1]: +3.00 mmHg
Average of SBP % change day 120 ([1]; no amlodipine): −20.65^1%
Average of SBP change day 120 ([1]; no amlodipine): −32.00^1 mmHg
SBP increased ([1]; day 30, FIG. 2): more than 10%
Average of SBP day 30 ([1]; day 30): 153.80 mmHg
Average of SBP day 30 ([1]; day 30, listed as enalapril): 153 mmHg
Average of SBP day 60 [1]: 153.00 mmHg
Average of SBP day 90 [1]: 158.00 mmHg
course of average SBP during the period of treatment ([1]; no amlodipine): increased again on days 60 and 90

CCCc1nc2c(C)cc(-c3nc4ccccc4n3C)cc2n1Cc1ccc(-c2ccccc2C(=O)O)cc1 [Telmisartan]
Average of SBP day 0 [1]: 163.57 mmHg
Average of SBP day 0 ([1]; listed as telmisartan): 163 mmHg
Average of SBP % change day 30 ([1]; day 30): −18.88%
Average of SBP change day 30 ([1]; day 30): −31.50 mmHg
Average of SBP % change day 60 [1]: −18.42%
Average of SBP change day 60 [1]: −31.00 mmHg
Average of SBP % change day 90 [1]: −22.58%
Average of SBP change day 90 [1]: −37.00 mmHg
Average of SBP % change day 120 ([1]; no amlodipine): −42.70^2%
Average of SBP change day 120 ([1]; no amlodipine): −76.00^2 mmHg
absolute average SBP compared to enalapril treated dogs ([1]; day 0 to day 90, no amlodipine, FIG. 4): much lower
average change of SBP, reduction compared to enalapril-treated dogs ([1]; day 30): at least 30 mmHg
reduction in SBP ([1]; day 30, FIG. 2): ~20%
average SBP change from baseline compared to enalapril ([1]; day 30, day 60 and day 90, dogs with SBP of at least 150 mmHg at day 0 which received amlodipine, FIG. 3): greater
Average of SBP day 30 ([1]; day 30): 140.86 mmHg
average change (reduction) in SBP compared to enalapril treated dogs ([1]; day 30 to day 90, no amlodipine, FIGS. 1 and 2): greater
Average of SBP day 60 [1]: 138.60 mmHg
Average of SBP day 90 [1]: 132.33 mmHg
Average of SBP day 90 ([1]; listed as telmisartan): 132 mmHg
course of average SBP during the period of treatment ([1]; no amlodipine): constantly lowered
effect on blood pressure ([2]; 1 mg/kg daily dose): have an effect on blood pressure
vascular and renal excretory effects ([2]; daily oral dose): produces vasodilation, diuresis and natriuresis without influencing potassium or creatinine excretion
